Experimental data published in patent publication US8178535B2, “Substituted sulfonamide compounds having bradykinin 1 receptor activity and use thereof as medicaments” (Gruenenthal GmbH, priority 2008, dated 2012).

What was measured:
[1] = biological target: T1, human B1R receptor (hB1R) (Homo sapiens, UniProt P46663); assay: FLIPR Ca2+ assay (Fluo-4) on CHO K1 cells stably transfected with the human B1R gene; assay type: cell-based; settings: CHO-K1; test substance 10 μM; agonist Lys-Des-Arg9-bradykinin 0.5 nM; % inhibition compared to the maximum achievable inhibition
T1 construct: host or cells: CHO K1 cells
T1 sequence (P46663 1-353): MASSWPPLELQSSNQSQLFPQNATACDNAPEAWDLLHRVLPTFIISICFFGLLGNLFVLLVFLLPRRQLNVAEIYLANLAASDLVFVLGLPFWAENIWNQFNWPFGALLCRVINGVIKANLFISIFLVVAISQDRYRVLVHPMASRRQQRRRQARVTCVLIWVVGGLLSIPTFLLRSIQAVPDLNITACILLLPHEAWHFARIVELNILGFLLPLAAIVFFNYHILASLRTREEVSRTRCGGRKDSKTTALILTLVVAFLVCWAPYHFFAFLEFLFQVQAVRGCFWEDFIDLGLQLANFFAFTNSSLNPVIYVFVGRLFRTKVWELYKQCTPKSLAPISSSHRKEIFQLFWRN
Summary of the method: (§1)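 CHO K1 cells stably expressing human or rat B1R, Fluo-4 loaded, read by FLIPR (Ex 488/Em 540, peak fluorescence). Compound at 10 μM gives % activation vs agonist. After 10 min, agonist added (human: Lys-Des-Arg9-bradykinin 0.5 nM; rat: Des-Arg9-bradykinin 100 nM); % inhibition relative to maximal achievable inhibition.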

[2] = biological target: T2, B1R receptor of rats (rB1R) (Rattus norvegicus, UniProt P97583); assay: FLIPR Ca2+ assay (Fluo-4) on CHO K1 cells stably transfected with the B1R gene of rats; assay type: cell-based; settings: CHO-K1; test substance 10 μM; agonist Des-Arg9-bradykinin 100 nM; % inhibition compared to the maximum achievable inhibition
T2 construct: host or cells: CHO K1 cells
T2 sequence (P97583 1-337): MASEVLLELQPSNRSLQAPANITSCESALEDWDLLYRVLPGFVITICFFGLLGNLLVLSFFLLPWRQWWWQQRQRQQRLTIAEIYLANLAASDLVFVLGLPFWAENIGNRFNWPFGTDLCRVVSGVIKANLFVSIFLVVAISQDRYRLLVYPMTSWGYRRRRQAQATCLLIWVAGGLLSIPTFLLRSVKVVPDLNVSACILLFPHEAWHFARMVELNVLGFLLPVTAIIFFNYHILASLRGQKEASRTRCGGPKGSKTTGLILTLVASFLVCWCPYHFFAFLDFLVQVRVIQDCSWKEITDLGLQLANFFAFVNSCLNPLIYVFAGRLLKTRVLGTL
Summary of the method: as §1

Row | inhibition at 10 µM [1] [%] | inhibition at 10 µM [2] [%] | Compound
1 | 103 | 103 | Cc1cc(C)c(S(=O)(=O)N2CCCCC2COCC(=O)N2CCn3c(CN4CCCCC4)ccc3C2c2ccccc2)c(C)c1 (centres unmarked) [(48), 2-((1-(mesitylsulfonyl)piperidin-2-yl)methoxy)-1-(1-phenyl-6-(piperidin-1-yl-methyl)-3,4-dihydropyrrolo[1,2-a]pyrazin-2(1H)-yl)ethanone]
2 | 103 | 103 | Cc1cc(C)c(S(=O)(=O)N2CCCCC2COCC(=O)N2CCn3c(CN4CCOCC4)ccc3C2c2ccccc2)c(C)c1 (centres unmarked) [(49), 2-((1-(mesitylsulfonyl)piperidin-2-yl)methoxy)-1-(6-(morpholinomethyl)-1-phenyl-3,4-dihydropyrrolo[1,2-a]pyrazin-2(1H)-yl)ethanone]
3 | 100 | 102 | Cc1cc(C)c(S(=O)(=O)N2CCCCC2COCC(=O)N2CCn3c(CN(C)C)ccc3C2Cc2ccccc2)c(C)c1 (centres unmarked) [(50), 1-(1-benzyl-6-((dimethylamino)methyl)-3,4-dihydropyrrolo[1,2-a]pyrazin-2(1H)-yl)-2-((1-(mesitylsulfonyl)piperidin-2-yl)methoxy)ethanone]
4 | 101 | 101 | Cc1cc(C)c(S(=O)(=O)N2CCCCC2COCC(=O)N2CCn3c(CN(C)C)ccc3C2CCc2ccccc2)c(C)c1 (centres unmarked) [(51), 1-(6-((dimethylamino)methyl)-1-phenethyl-3,4-dihydropyrrolo[1,2-a]pyrazin-2(1H)-yl)-2-((1-(mesitylsulfonyl)piperidin-2-yl)methoxy)ethanone]
5 | 103 | 100 | CCCCC1c2ccc(CN(C)C)n2CCN1C(=O)COCC1CCCCN1S(=O)(=O)c1c(C)cc(C)cc1C (centres unmarked) [(52), 1-(1-butyl-6-((dimethylamino)methyl)-3,4-dihydropyrrolo[1,2-a]pyrazin-2(1H)-yl)-2-((1-(mesitylsulfonyl)piperidin-2-yl)methoxy)ethanone]
6 | 92 | 102 | Cc1cc(C)c(S(=O)(=O)N2CCCCC2COCC(=O)N2CCn3c(CN(C)C)ccc3C2c2cccs2)c(C)c1 (centres unmarked) [(53), 1-(6-((dimethylamino)methyl)-1-(thiophen-2-yl)-3,4-dihydropyrrolo[1,2-a]pyrazin-2(1H)-yl)-2-((1-(mesitylsulfonyl)piperidin-2-yl)methoxy)ethanone]
7 | 102 | 100 | CCC1c2ccc(CN(C)C)n2CCN1C(=O)COCC1CCCCN1S(=O)(=O)c1c(C)cc(C)cc1C (centres unmarked) [(54), 1-(6-((dimethylamino)methyl)-1-ethyl-3,4-dihydropyrrolo[1,2-a]pyrazin-2(1H)-yl)-2-((1-(mesitylsulfonyl)piperidin-2-yl)methoxy)ethanone]
8 | 98 | 103 | CCC1c2cccn2CCN1C(=O)COCC1CCCCN1S(=O)(=O)c1c(C)cc(C)cc1C (centres unmarked) [(55), 1-(1-ethyl-3,4-dihydropyrrolo[1,2-a]pyrazin-2(1H)-yl)-2-((1-(mesitylsulfonyl)piperidin-2-yl)methoxy)ethanone]
9 | 95 | 102 | CCCC1c2cccn2CCN1C(=O)COCC1CCCCN1S(=O)(=O)c1c(C)cc(C)cc1C (centres unmarked) [(56), 2-((1-(mesitylsulfonyl)piperidin-2-yl)methoxy)-1-(1-propyl-3,4-dihydropyrrolo[1,2-a]pyrazin-2(1H)-yl)ethanone]
10 | 102 | 103 | Cc1cc(C)c(S(=O)(=O)N2CCCCC2COCC(=O)N2CCn3cccc3C2C(C)C)c(C)c1 (centres unmarked) [(57), 1-(1-isopropyl-3,4-dihydropyrrolo[1,2-a]pyrazin-2(1H)-yl)-2-((1-(mesitylsulfonyl)piperidin-2-yl)methoxy)ethanone]
11 | 97 | 103 | CCC1c2ccc(C)n2CCN1C(=O)COCC1CCCCN1S(=O)(=O)c1c(C)cc(C)cc1C (centres unmarked) [(58), 1-(1-ethyl-6-methyl-3,4-dihydropyrrolo[1,2-a]pyrazin-2(1H)-yl)-2-((1-(mesitylsulfonyl)piperidin-2-yl)methoxy)ethanone]
12 | 85 | 103 | Cc1cc(C)c(S(=O)(=O)N2CCCCC2COCC(=O)N2CCn3c(C)ccc3C2C(C)C)c(C)c1 (centres unmarked) [(59), 1-(1-isopropyl-6-methyl-3,4-dihydropyrrolo[1,2-a]pyrazin-2(1H)-yl)-2-((1-(mesitylsulfonyl)piperidin-2-yl)methoxy)ethanone]
13 | 87 | 102 | COc1cc(C)c(S(=O)(=O)N2CCCCC2COCC(=O)N2CCn3cccc3C2CCc2ccccc2)c(C)c1 (centres unmarked) [(60), 2-((1-(4-methoxy-2,6-dimethylphenylsulfonyl)piperidin-2-yl)methoxy)-1-(1-phenethyl-3,4-dihydropyrrolo[1,2-a]pyrazin-2(1H)-yl)ethanone]
14 | 102 | 101 | COc1cc(C)c(S(=O)(=O)N2CCCCC2COCC(=O)N2CCn3c(CN(C)C)ccc3C2c2ccccc2)c(C)c1 (centres unmarked) [(61), 1-(6-((dimethylamino)methyl)-1-phenyl-3,4-dihydropyrrolo[1,2-a]pyrazin-2(1H)-yl)-2-((1-(4-methoxy-2,6-dimethylphenylsulfonyl)piperidin-2-yl)methoxy)ethanone]
15 | 102 | 101 | COc1cc(C)c(S(=O)(=O)N2CCCCC2COCC(=O)N2CCn3c(CN4CCCC4)ccc3C2c2ccccc2)c(C)c1 (centres unmarked) [(62), 2-((1-(4-methoxy-2,6-dimethylphenylsulfonyl)piperidin-2-yl)methoxy)-1-(1-phenyl-6-(pyrrolidin-1-ylmethyl)-3,4-dihydropyrrolo[1,2-a]pyrazin-2(1H)-yl)ethanone]
16 | 104 | 103 | COc1cc(C)c(S(=O)(=O)N2CCCCC2COCC(=O)N2CCn3c(CN4CCCCC4)ccc3C2c2ccccc2)c(C)c1 (centres unmarked) [(63), 2-((1-(4-methoxy-2,6-dimethylphenylsulfonyl)piperidin-2-yl)methoxy)-1-(1-phenyl-6-(piperidin-1-ylmethyl)-3,4-dihydropyrrolo[1,2-a]pyrazin-2(1H)-yl)ethanone]
17 | 103 | 102 | COc1cc(C)c(S(=O)(=O)N2CCCCC2COCC(=O)N2CCn3c(CN4CCOCC4)ccc3C2c2ccccc2)c(C)c1 (centres unmarked) [(64), 2-((1-(4-methoxy-2,6-dimethylphenylsulfonyl)piperidin-2-yl)methoxy)-1-(6-(morpholinomethyl)-1-phenyl-3,4-dihydropyrrolo[1,2-a]pyrazin-2(1H)-yl)ethanone]
18 | 102 | 100 | COc1cc(C)c(S(=O)(=O)N2CCCCC2COCC(=O)N2CCn3c(CN(C)C)ccc3C2Cc2ccccc2)c(C)c1 (centres unmarked) [(65), 1-(1-benzyl-6-((dimethylamino)methyl)-3,4-dihydropyrrolo[1,2-a]pyrazin-2(1H)-yl)-2-((1-(4-methoxy-2,6-dimethylphenylsulfonyl)piperidin-2-yl)methoxy)ethanone]
19 | 102 | 101 | COc1cc(C)c(S(=O)(=O)N2CCCCC2COCC(=O)N2CCn3c(CN(C)C)ccc3C2CCc2ccccc2)c(C)c1 (centres unmarked) [(66), 1-(6-((dimethylamino)methyl)-1-phenethyl-3,4-dihydropyrrolo[1,2-a]pyrazin-2(1H)-yl)-2-((1-(4-methoxy-2,6-dimethylphenylsulfonyl)piperidin-2-yl)methoxy)ethanone]
